Data taken from patent publication US3932425A, “Benzospiran derivatives” (The Upjohn Company, priority 1974, dated 1976).

How the values were obtained:
Type in all cases: in vivo
mice [1] = experiment: Nicotine antagonism test (nicotine salicylate 2 mg./kg. overstimulation, convulsions, tonic extensor fits, death); settings: Mus musculus, ip, intraperitoneal injection 30 minutes before nicotine salicylate 2 mg./kg., (3) = death, read-out: ED50, Ni (nicotine antagonism (3) test)
Description: (§1) Tranquilizing effects of compounds of this invention are shown by the following tests in mice:
Nicotine antagonism test: Mice in a group of 6 are injected with the test compound. Thirty minutes later the mice including control (untreated) mice are injected with nicotine salicylate (2 mg./kg.). The control mice show overstimulation, i.e., (1) running convulsions followed by (2) tonic extensor fits; followed by (3) death.
Ni = nicotine antagonism (3) test

mice [2] = experiment: Dish test (tranquilizing effect; mice remaining in Petri dish for more than 3 minutes); settings: Mus musculus, ip, 0.05 h, intraperitoneal injection, 50 percent of the mice remain in the dish more than 3 minutes, read-out: ED50, D (dish test)
Description: (§2) The free bases and acid addition salts of the novel compounds of Formula I are useful as central nervous system (CNS) depressants when administered to humans and animals.
as §1
Dish test: Mice in Petri dishes (10 cm. diameter, 5 cm. high, partially embedded in wood shavings), climb out in a very short time, when not treated. Mice remaining in the dish for more than 3 minutes indicates tranquilization. ED50 equals the dose of test compound at which 50 percent of the mice remain in the dish.

mice [3] = experiment: Chimney test (tranquilizing effect; ability of mice to back up and out of a vertical glass cylinder within 30 seconds); settings: Mus musculus, ip, intraperitoneal injection, 50 percent of the mice failed within 30 seconds, read-out: ED50, Ch (chimney test)
From the text: as §2, §1
Chimney test: [Med. Exp. 4, 145 (1961)]: The test determines the ability of mice to back up and out of a verticle glass cylinder within 30 seconds. At the effective dosage, 50 percent of the mice failed doing it.

mice [4] = experiment: Pedestal test (tranquilizing effect; mice staying on the pedestal for more than 1 minute); settings: Mus musculus, ip, 1 min, intraperitoneal injection, stay on the pedestal for more than 1 minute, read-out: ED50, P (pedestal test)
Description: as §2, §1
Pedestal test: The untreated mouse leaves a standard pedestal in less than a minute to climb back to the floor of the standard mouse box. Tranquilized mice will stay on the pedestal for more than 1 minute.

rats = experiment: Hypotensive activity (manner of Weeks and Jones, Proc. Soc. Exp. Biol. and Med. 104, 646 (1960)); settings: Rattus norvegicus; oral administration to rats; read-out: MED100 (minimal effective dose), hypotensive
From the text: The free bases and pharmacologically acceptable acid addition salts of the compounds of Formula I (a, b and c) are also useful in lowering blood pressure when administered to humans and animals. This activity makes them useful in the treatment of essential hypertension. […] Exp. Biol. and Med. 104, 646 (1960). The following compounds typical of this invention have (by oral administration to rats) MED100 (minimal effective dose) as shown in the table below.

Row | SMILES | ED50 (mice [1]) [mg/kg] | ED50 (mice [2]) [mg/kg] | ED50 (mice [3]) [mg/kg] | ED50 (mice [4]) [mg/kg] | minimal effective dose (rats) [mg/kg]
1 | CN(CCCC(=O)c1ccc(F)cc1)C1CCC2(CC1)Cc1ccccc1C2.Cl [4'-Fluoro-4-[methyl[spiro[cyclohexane-1,2'-indan]-4-yl]amino]butyrophenone hydrochloride] | 4 | 3.6 | 16 | 9 | 
2 | Cl.O=C(CCCNC1CCC2(CC1)Cc1ccccc1C2)c1ccc(F)cc1 [4'-Fluoro-4-[[spiro[cyclohexane-1,2'-indan]-4-yl]amino]butyrophenone hydrochloride] |  |  |  |  | 50
3 | Cl.O=C(CCCNC1CCC2(CCc3ccccc3C2)CC1)c1ccc(F)cc1 (centres unmarked) [4'-Fluoro-4-[[3',4'-dihydrospiro[cyclohexane-1,2'(1'H)-naphthalen]-4-yl]amino]butyrophenone hydrochloride] | 7 | 9.9 | 9.9 | 12.5 | 
4 | Cl.O=C(CCCNC1CCC2(CCCc3ccccc32)CC1)c1ccc(F)cc1 (centres unmarked) [4'-Fluoro-4-[3',4'-dihydrospiro[cyclohexane-1,1'(2'H)-naphthalen]-4-ylamino]butyrophenone hydrochloride] | 5 | 10 | 25 | 16 | 
5 | Cl.O=C(CCCNC1CCC2(CC1)Cc1ccccc1C2O)c1ccc(F)cc1 (centres unmarked) [4'-Fluoro-4-[[1'-hydroxyspiro[cyclohexane-1,2'-indan]-4-yl]amino]butyrophenone hydrochloride] |  |  |  |  | 50
